Data as given in patent US5162203A, “Methods of measuring isozymes and isozyme classes of alcohol dehydrogenase” (President and Fellows of Harvard College, priority 1989, dated 1992).

What was measured:
αβ1 ADH (Class I) = target: T1, αβ1 ADH (Class I) (Homo sapiens, UniProt P00325+P07327); assay: Kinetics of enzymatic reduction of methoxynaphthaldehydes by αβ1 ADH; type: biochemical; settings: rate relative to ethanol oxidation at pH 10.0
T1 construct: beta1 allele (ADH1B*1, Arg47 and Arg369 in mature count)
T1 sequence (P07327 2-375): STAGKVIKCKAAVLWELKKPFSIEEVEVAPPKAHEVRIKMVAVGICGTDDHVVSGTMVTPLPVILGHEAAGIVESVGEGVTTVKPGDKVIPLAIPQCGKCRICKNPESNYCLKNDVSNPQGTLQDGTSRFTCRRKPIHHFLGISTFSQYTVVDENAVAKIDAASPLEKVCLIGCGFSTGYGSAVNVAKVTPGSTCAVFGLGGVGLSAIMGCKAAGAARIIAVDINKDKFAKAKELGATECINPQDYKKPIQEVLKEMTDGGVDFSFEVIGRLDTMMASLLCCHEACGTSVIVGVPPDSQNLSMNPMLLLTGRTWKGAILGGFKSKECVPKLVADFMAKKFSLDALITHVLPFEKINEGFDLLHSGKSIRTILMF
T1 sequence (P00325 2-375): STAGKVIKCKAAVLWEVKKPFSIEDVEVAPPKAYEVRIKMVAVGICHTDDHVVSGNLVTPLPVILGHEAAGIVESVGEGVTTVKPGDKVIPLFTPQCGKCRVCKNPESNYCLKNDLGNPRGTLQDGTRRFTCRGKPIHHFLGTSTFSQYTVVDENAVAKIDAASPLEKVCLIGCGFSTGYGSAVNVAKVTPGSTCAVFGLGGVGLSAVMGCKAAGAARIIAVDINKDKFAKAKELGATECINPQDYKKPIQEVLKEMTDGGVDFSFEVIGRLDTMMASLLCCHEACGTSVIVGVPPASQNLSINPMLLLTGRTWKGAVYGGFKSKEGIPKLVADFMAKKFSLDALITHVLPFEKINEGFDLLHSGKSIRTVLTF
Procedure: (§1) Standard assays for ethanol oxidation activity (Dalziel, 1957, Acta Chem Scand 11:1706-23) were carried out on a Cary 219 spectrophotometer interfaced with an Apple IIe microcomputer, using software provided by Varian Associates. The reaction mixture contained 2.5 mM NAD^+ in 0.1M glycine-NaOH buffer. pH 10.0, and 33 mM or 0.2M ethanol for Class I and Class II ADH, respectively.
(§2) Aldehyde reduction was monitored by following the decrease of absorption at 340 nm in 40 mM Mes buffer, pH 7.1. in the presence of saturating NADH, 50 μM for Class I and 100 μM for Class II. […] Initial reaction rates were measured and kinetic parameters determined by conventional procedures as described by Segel, 1975, Enzyme Kinetics, pp. 591-597, Wiley, N.Y. […]
(§3) The linear increase of fluorescence was then recorded for 1-10 minutes, until 0.03-1 μM of substrate was consumed. […] The added product fluorescence intensity was then measured Fluorescence measurements were optimized for samples with low activity (<1 nM/minute). […] Rates measured in the presence of the 0.2 mM ADH inhibitors. […]
(§4) Additionally the reaction rates for these isozymes were compared to those measured by the standard assay for ethanol oxidation (see part 7 above) at pH 10.0 the optimum for oxidation of ethanol by ADH. […]

β1 β1 ADH (Class I) [1] = assay: Kinetics of enzymatic reduction of methoxynaphthaldehydes by β1β1 ADH; type: biochemical, human; settings: for Km / kcat: Table IV; for v/v (EtOH): rate relative to ethanol oxidation at pH 10.0
Procedure: as §1
(§5) Aldehyde reduction was monitored by following the decrease of absorption at 340 nm in 40 mM Mes buffer, pH 7.1. in the presence of saturating NADH, 50 μM for Class I and 100 μM for Class II. […] Initial reaction rates were measured and kinetic parameters determined by conventional procedures as described by Segel, 1975, Enzyme Kinetics, pp. 591-597, Wiley, N.Y.
(§6) All reaction mixtures (3 ml total volume) were prepared directly in 1 cm pathlength, 4 ml fluorometric cuvettes by adding 150 μl of the 300 μM substrate solution (e.g substrate IA or IIA) 100 μl of the 1 mM NADH solution (prepared as in part 5 above) and 2.69 ml of assay buffer (0.1M phosphate, pH 7.6). After thermal equilibration (25° C.) for 5 minutes, 60 μl of isozyme sample (either serum or purified ADH isozymes) was added to the cuvette.
(§7) The linear increase of fluorescence was then recorded for 1-10 minutes, until 0.03-1 μM of substrate was consumed. Larger substrate consumption was not found to be desirable (described in subpart (c) below). After this period the instrument sensitivity setting was reduced 10-30 fold, the signal compensated once again by zero suppression (see part 6 above), and 60 μl of 200-400 μM product (e.g., product IB or IIB) was added to provide an internal standard. The added product fluorescence intensity was then measured Fluorescence measurements were optimized for samples with low activity (<1 nM/minute). For samples with higher activity, repeat measurements were made with the serum volume reduced from 60 μl to 10 μl. Rates measured in the presence of the 0.2 mM ADH inhibitors. 4-MeP or 4-PeP, were made by adding 50 μl of 12 mM inhibitor to the cuvette prior to the assay buffer, and the reaction was carried out as above.
(§8) The rates of aldehyde reduction, determined as initial velocities (V) and expressed in units of nM/minute, were calculated according to: [formula] where the quantity in parentheses is the slope of the linear fluorescence increase calculated from the quantities Ft and FO, the fluorescence at time t and at the beginning of the reaction, respectively. Cst is the concentration of the product used as a standard added to the cuvette after the initial rate had been measured and Fst is the fluorescence intensity of the added product
(§9) Additionally the reaction rates for these isozymes were compared to those measured by the standard assay for ethanol oxidation (see part 7 above) at pH 10.0 the optimum for oxidation of ethanol by ADH. The rate of IA reduction for all Class I isozymes except the β1 β1 form is 1.5- to 4-fold faster than that of ethanol oxidation as measured by the conventional ethanol oxidation assay. […] Table III illustrates that IIA is an excellent substrate for Class II (.eta.) ADH, with a rate of IIA reduction at least 8-fold faster than that of ethanol oxidation.

Horse ADH = assay: Kinetics of enzymatic reduction of methoxynaphthaldehydes by horse ADH; type: biochemical; settings: for Km / kcat: pH 7.0, 50 μM NADH, spectrophotometric, >90% EE isozyme; for v/v (EtOH): rate relative to ethanol oxidation at pH 10.0
From the text: Crystalline horse ADH was purchased from Boehringer-Mannheim (Indianapolis,Ind.). NAD^+ and NADH, both grade III, were obtained as preweighed samples from Sigma Chemical Co. (St. Louis, Mo.); isobutyramide was from Aldrich., ethanol (100%) was from U.S. Industrial Chemicals Co. (New York, N.Y.); Mes acid (2-(N-morpholino)ethanesulfonic acid) was recrystallized from water. All other reagents were of analytical grade. Deionized, glass-distilled water was used throughout.
as §1, §2, §9

β1 γ1 ADH (Class I) = target: T2, β1 γ1 ADH (Class I) (Homo sapiens, UniProt P00325+P00326); assay: Kinetics of enzymatic reduction of methoxynaphthaldehydes by β1γ1 ADH; type: biochemical; settings: rate relative to ethanol oxidation at pH 10.0
T2 construct: beta1 (ADH1B*1) and gamma1 (ADH1C*1) alleles
T2 sequence (P00325 whole entry): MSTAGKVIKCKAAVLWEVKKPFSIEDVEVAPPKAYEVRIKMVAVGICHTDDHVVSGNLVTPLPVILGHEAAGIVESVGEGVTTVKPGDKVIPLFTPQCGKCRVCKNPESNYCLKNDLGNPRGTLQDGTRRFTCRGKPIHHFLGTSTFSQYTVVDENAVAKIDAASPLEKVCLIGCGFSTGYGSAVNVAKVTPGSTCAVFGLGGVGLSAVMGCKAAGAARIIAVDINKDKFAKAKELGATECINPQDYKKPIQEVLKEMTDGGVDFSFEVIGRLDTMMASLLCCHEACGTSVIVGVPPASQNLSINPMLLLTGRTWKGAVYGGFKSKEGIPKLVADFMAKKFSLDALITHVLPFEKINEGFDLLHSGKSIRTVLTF
T2 sequence (P00326 whole entry): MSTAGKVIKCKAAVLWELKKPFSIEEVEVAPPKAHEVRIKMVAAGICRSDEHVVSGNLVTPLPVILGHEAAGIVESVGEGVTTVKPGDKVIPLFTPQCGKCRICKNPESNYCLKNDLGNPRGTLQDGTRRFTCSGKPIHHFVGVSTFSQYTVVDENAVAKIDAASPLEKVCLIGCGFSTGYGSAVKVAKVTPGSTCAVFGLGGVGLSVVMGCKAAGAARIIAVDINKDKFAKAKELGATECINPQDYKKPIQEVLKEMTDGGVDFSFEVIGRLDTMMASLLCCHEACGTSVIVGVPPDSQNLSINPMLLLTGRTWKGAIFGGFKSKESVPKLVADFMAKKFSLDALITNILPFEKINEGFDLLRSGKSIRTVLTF

β1 β1 ADH (Class I) [2] = assay: Kinetics of enzymatic reduction of methoxynaphthaldehydes by β1β1 ADH; type: biochemical, human; settings: pH 7.0, 50 μM NADH; spectrophotometric
Class I ADH = assay: Kinetics of enzymatic reduction of methoxynaphthaldehydes by Class I ADH isozymes; type: biochemical, human; settings: for kcat / Km: Table IV; for kcat: average for Class I isozymes except ββ forms; for Km: range over Class I isozymes
Procedure: as §5, §6, §7, §8, §9
The values for these constants were determined with purified Class II ADH or a mixture of purified Class I isozymes, under the fluorometric assay conditions described above in Example 1.

αγ1 ADH (Class I) = target: T3, αγ1 ADH (Class I) (Homo sapiens, UniProt P00326+P07327); assay: Kinetics of enzymatic reduction of methoxynaphthaldehydes by αγ1 ADH; type: biochemical; settings: rate relative to ethanol oxidation at pH 10.0
T3 construct: gamma1 allele (ADH1C*1, Arg271 and Ile349 in mature count)
T3 sequence (P07327 2-375): as the sequence (P07327 2-375) above
T3 sequence (P00326 2-375): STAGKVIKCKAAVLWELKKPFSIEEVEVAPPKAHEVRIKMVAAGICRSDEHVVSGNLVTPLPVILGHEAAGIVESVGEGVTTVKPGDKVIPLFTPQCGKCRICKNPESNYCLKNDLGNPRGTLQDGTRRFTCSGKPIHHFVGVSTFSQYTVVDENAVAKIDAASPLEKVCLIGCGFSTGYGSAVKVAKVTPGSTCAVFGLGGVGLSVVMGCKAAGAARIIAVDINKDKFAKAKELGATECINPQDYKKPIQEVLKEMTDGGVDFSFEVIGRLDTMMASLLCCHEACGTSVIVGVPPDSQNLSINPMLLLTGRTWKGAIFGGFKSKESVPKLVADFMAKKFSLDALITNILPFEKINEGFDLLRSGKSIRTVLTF

γ1 γ1 ADH (Class I) = target: T4, γ1 γ1 ADH (Class I) (Homo sapiens, UniProt P00326); assay: Kinetics of enzymatic reduction of methoxynaphthaldehydes by γ1γ1 ADH; type: biochemical; settings: rate relative to ethanol oxidation at pH 10.0
T4 construct: gamma1 allele (ADH1C*1, Arg271 and Ile349 in mature count)
T4 sequence (P00326 2-375): as above

[3] = Stability of substrates and product solutions; type: physicochemical; settings: for stability in stock solution: 20° C., 30 days, water:acetonitrile (70:30 v/v)
Procedure: The dilute solutions (300 μM) were prepared by diluting 1 ml of the stock solution to 10 ml with water.
Concentrations were determined spectrophotometrically using a molar absorptivity of 5700 M^-1 cm^-1 at 296 nm for IB and 1270 M^-1 cm^-1 at 330 nm for IIB.

Class II (π) ADH = Class II (π) ADH (Homo sapiens, UniProt P08319); assay: Kinetics of enzymatic reduction of methoxynaphthaldehydes by Class II ADH; type: biochemical; settings: for v/v (EtOH): rate relative to ethanol oxidation at pH 10.0
Chain of Class II (π) ADH (P08319 whole entry): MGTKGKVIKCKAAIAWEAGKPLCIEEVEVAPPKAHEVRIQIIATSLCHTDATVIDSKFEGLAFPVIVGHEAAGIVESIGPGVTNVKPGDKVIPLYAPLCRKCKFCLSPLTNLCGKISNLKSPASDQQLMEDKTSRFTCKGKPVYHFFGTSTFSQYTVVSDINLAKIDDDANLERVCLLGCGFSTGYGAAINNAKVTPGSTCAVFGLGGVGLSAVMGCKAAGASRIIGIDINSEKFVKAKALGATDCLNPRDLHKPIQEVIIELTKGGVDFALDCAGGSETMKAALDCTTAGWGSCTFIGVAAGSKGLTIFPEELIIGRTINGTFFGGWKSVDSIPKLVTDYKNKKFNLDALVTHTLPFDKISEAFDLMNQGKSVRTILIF

β1 γ2 ADH (Class I) = target: T5, β1 γ2 ADH (Class I) (Homo sapiens, UniProt P00325+P00326, I350V/R272Q); assay: Kinetics of enzymatic reduction of methoxynaphthaldehydes by β1γ2 ADH; type: biochemical; settings: rate relative to ethanol oxidation at pH 10.0
T5 construct: beta1 (ADH1B*1) and gamma2 (ADH1C*2) alleles
T5 sequence (P00325 2-375, stated change not applied): as the sequence (P00325 2-375) above
T5 sequence (P00326 2-375 R272Q/I350V): as the sequence (P00326 2-375) above, with R271Q, I349V counted along it
Procedure: as §1, §2, §3, §4

[4] = pH 7.0, 50 μM NADH, spectrophotometric

| Structure (SMILES) | v/v (EtOH) (αβ1 ADH (Class I)) | Km (β1 β1 ADH (Class I) [1]) | kcat (β1 β1 ADH (Class I) [1]) | v/v (EtOH) (β1 β1 ADH (Class I) [1]) | Km (Horse ADH) | kcat (Horse ADH) | v/v (EtOH) (Horse ADH) | v/v (EtOH) (β1 γ1 ADH (Class I)) | Km (β1 β1 ADH (Class I) [2]) | kcat (β1 β1 ADH (Class I) [2]) | kcat (Class I ADH) | Km (Class I ADH) | v/v (EtOH) (αγ1 ADH (Class I)) | v/v (EtOH) (γ1 γ1 ADH (Class I)) | stability in stock solution [3] | stability in crystalline state [3] | stability of dilute aqueous solutions [3] | kcat (Class II (π) ADH; [4]) | v/v (EtOH) (Class II (π) ADH) | v/v (EtOH) (β1 γ2 ADH (Class I)) | further results |
| --- | --- | --- | --- | --- | --- | --- | --- | --- | --- | --- | --- | --- | --- | --- | --- | --- | --- | --- | --- | --- | --- |
| COc1ccc2cc(C=O)ccc2c1 [IIA, 6-methoxy-2-naphthaldehyde] | 0.74 | 5.4 µM | 1.28 s⁻¹ | 4.85 | 2.2 µM | 35.83 s⁻¹ | 2.5 | 0.53 | 5.4 µM | 1.28 s⁻¹ | 1.83 s⁻¹ | 0.4 to 11.5 µM | 1.06 | 0.45 | spectral changes were not observed | stable | much less stable | 25 s⁻¹ | 8.0 | 1.6 | rate of reduction versus ethanol oxidation (Class I ADH; Class I isozymes, words): generally slower, but still comparable; d: ratio of specific rates for Class I ADH with IIA and IA as substrates (Class I ADH; average value): 0.27; ratio of specific rates for Class I to Class II ADH with IIA as substrate (Class I ADH; average value): 0.27; kcat for Class II relative to Class I isozymes (Class II (π) ADH): 10 fold; kcat (Class II (π) ADH; Class II): 25 s⁻¹; rate of reduction relative to ethanol oxidation (Class II (π) ADH; Class II ADH): at least 8 fold |
| COc1ccc(C=O)c2ccccc12 [IA, 4-methoxy-1-naphthaldehyde] | 1.59 | 4 µM | 0.033 s⁻¹ | 0.08 | 33 µM | 0.433 s⁻¹ | 0.04 | 0.93 | 4 µM | 0.033 s⁻¹ | 5.83 s⁻¹ | 0.6 to 8.5 µM | 2.71 | 1.54 | spectral changes were not observed | stable | much less stable | 0.833 s⁻¹ | 0.20 | 3.4 | rate of reduction of IA versus IIA by Class I ββ isozymes (β1 β1 ADH (Class I) [1]; words): much faster; a: ratio of specific rates for Class I to Class II ADH with IA as substrate (Class I ADH; fluorometric assay conditions): 0.022 |
